# Data reported in ChEMBL document CHEMBL1132959, “Design of potent dicyclic (1-5/4-10) gonadotropin releasing hormone (GnRH) antagonists” (J Med Chem, 2000).
# Target: T1, Gonadotropin-releasing hormone receptor (Rattus norvegicus, UniProt P30969)
# T1 sequence (P30969 whole entry): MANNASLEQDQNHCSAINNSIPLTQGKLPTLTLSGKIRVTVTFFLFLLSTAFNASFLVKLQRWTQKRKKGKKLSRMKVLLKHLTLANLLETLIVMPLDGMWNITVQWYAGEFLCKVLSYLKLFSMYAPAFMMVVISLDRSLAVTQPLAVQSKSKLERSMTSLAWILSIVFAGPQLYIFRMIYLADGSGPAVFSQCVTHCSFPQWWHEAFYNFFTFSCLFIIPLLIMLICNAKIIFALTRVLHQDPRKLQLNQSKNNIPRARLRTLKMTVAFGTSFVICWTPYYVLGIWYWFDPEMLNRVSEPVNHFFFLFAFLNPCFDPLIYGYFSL
# Test: Affinity for rat gonadotrophin releasing hormone (GnRH) receptor using HEK293 cells transfected with rat Gonadotropin-releasing hormone receptor
# Assay type: cell-based
# Details: hek293
row,Compound,Ki [nM]
1,CC(=O)N[C@H](Cc1ccc2ccccc2c1)C(=O)N[C@H]1CC(=O)NCC(=O)NC[C@@H]2NC(=O)[C@H](Cc3ccc(O)cc3)NC(=O)[C@H](CC(=O)NC[C@@H](C(N)=O)NC(=O)[C@@H]3CCCN3C(=O)[C@H](CCCN=C(N)N)NC(=O)[C@H](CC(C)C)NC2=O)NC(=O)[C@@H](Cc2c[nH]c3ccccc23)NC1=O,490
2,CC(=O)N[C@H](Cc1ccc2ccccc2c1)C(=O)N[C@H](Cc1ccc(Cl)cc1)C(=O)N[C@@H]1CC(=O)NCCCC[C@@H]2NC(=O)[C@H](CC(C)C)NC(=O)[C@@H](Cc3ccc4ccccc4c3)NC(=O)[C@H](CCCNC(=N)N)NC(=O)[C@H](CC(=O)NC[C@@H](C(N)=O)NC(=O)[C@@H]3CCCN3C2=O)NC1=O,11
3,CC(=O)N[C@H](Cc1ccc2ccccc2c1)C(=O)N[C@@H]1CCC(=O)NCCCC[C@@H]2NC(=O)[C@H](CC(C)C)NC(=O)[C@@H](Cc3ccc4ccccc4c3)NC(=O)[C@H](CCCN=C(N)N)NC(=O)[C@H](CC(=O)NC[C@@H](C(N)=O)NC(=O)[C@@H]3CCCN3C2=O)NC(=O)[C@@H](Cc2cccnc2)NC1=O [listing 1 of 2 here],15

# Other lines, results leading:
row,Ki [nM],Compound
1,67,CC(=O)N[C@H](Cc1ccc2ccccc2c1)C(=O)N[C@@H]1CC(=O)NC[C@@H](C(=O)N2CCC[C@H]2C(=O)N[C@H](C)C(N)=O)NC(=O)[C@H](CC(C)C)NC(=O)[C@@H](Cc2ccc3ccccc3c2)NC(=O)[C@H](CCCNC(=N)N)NC(=O)[C@H](C)NC(=O)[C@@H](Cc2cccnc2)NC1=O [listing 1 of 2 here]
2,62,CC(=O)N[C@H]1CCC(=O)NCCCC[C@@H](C(=O)N2CCC[C@H]2C(=O)N[C@@H](C)C(N)=O)NC(=O)[C@H](CC(C)C)NC(=O)[C@H](Cc2ccc3ccccc3c2)NC(=O)[C@H](CCCNC(=N)N)NC(=O)[C@H](C)NC(=O)[C@H](Cc2cccnc2)NC(=O)[C@H](Cc2ccc(Cl)cc2)NC1=O
3,55,CC(=O)N[C@@H]1CCC(=O)NCCCC[C@@H](C(=O)N2CCC[C@H]2C(=O)N[C@@H](C)C(N)=O)NC(=O)[C@H](CC(C)C)NC(=O)[C@H](Cc2ccc3ccccc3c2)NC(=O)[C@H](CCCNC(=N)N)NC(=O)[C@H](C)NC(=O)[C@H](Cc2cccnc2)NC(=O)[C@H](Cc2ccc(Cl)cc2)NC1=O
4,23,CC(=O)N[C@H](Cc1ccc2ccccc2c1)C(=O)N[C@H](Cc1ccc(Cl)cc1)C(=O)N[C@@H]1CCC(=O)NCCCC[C@@H](C(=O)N2CCC[C@H]2C(=O)N[C@H](C)C(N)=O)NC(=O)[C@H](CC(C)C)NC(=O)[C@@H](Cc2ccc3ccccc3c2)NC(=O)[C@H](CCCNC(=N)N)NC(=O)[C@H](CO)NC1=O
5,21,CC(C)C[C@@H]1NC(=O)[C@@H](Cc2ccc3ccccc3c2)NC(=O)[C@H](CCCNC(=N)N)NC(=O)[C@H](C)NC(=O)[C@@H](Cc2cccnc2)NC(=O)[C@@H](Cc2ccc(Cl)cc2)NC(=O)[C@@H](Cc2ccc3ccccc3c2)NC(=O)CCC(=O)NCCCC[C@@H](C(=O)N2CCC[C@H]2C(=O)N[C@H](C)C(N)=O)NC1=O
6,0.32,CC(=O)N[C@H](Cc1ccc2ccccc2c1)C(=O)N[C@H](Cc1ccc(F)cc1)C(=O)N[C@H](Cc1c[nH]c2ccccc12)C(=O)N[C@H]1CC(=O)NC[C@@H](C(N)=O)NC(=O)[C@@H]2CCCN2C(=O)[C@@H]2CCCCNC(=O)CC[C@H](NC1=O)C(=O)N[C@H](CCCN=C(N)N)C(=O)N[C@@H](CC(C)C)C(=O)N2
7,0.12,CC(=O)N[C@H](Cc1ccc2ccccc2c1)C(=O)N[C@H](Cc1ccc(F)cc1)C(=O)N[C@H](Cc1cccnc1)C(=O)N[C@H]1CC(=O)NC[C@@H](C(N)=O)NC(=O)[C@@H]2CCCN2C(=O)[C@@H]2CCNC(=O)CNC(=O)CC[C@H](NC1=O)C(=O)N[C@H](CCCN=C(N)N)C(=O)N[C@@H](CC(C)C)C(=O)N2

# Species: Rattus norvegicus
# Test: Antiovulatory potency at 1000 ug/rat expressed as rats ovulating by total no. of rats (4/4)
# Assay type: functional
# Details: not given
row,Compound,Ovulating rats
1,CC(=O)N[C@H](Cc1ccc2ccccc2c1)C(=O)N[C@H]1CC(=O)NCC(=O)NC[C@@H]2NC(=O)[C@H](Cc3ccc(O)cc3)NC(=O)[C@H](CC(=O)NC[C@@H](C(N)=O)NC(=O)[C@@H]3CCCN3C(=O)[C@H](CCCN=C(N)N)NC(=O)[C@H](CC(C)C)NC2=O)NC(=O)[C@@H](Cc2c[nH]c3ccccc23)NC1=O,4
2,CC(=O)N[C@H](Cc1ccc2ccccc2c1)C(=O)N[C@@H]1CC(=O)NC[C@@H](C(=O)N2CCC[C@H]2C(=O)N[C@H](C)C(N)=O)NC(=O)[C@H](CC(C)C)NC(=O)[C@@H](Cc2ccc3ccccc3c2)NC(=O)[C@H](CCCNC(=N)N)NC(=O)[C@H](C)NC(=O)[C@@H](Cc2cccnc2)NC1=O [listing 2 of 2 here],4
3,CC(=O)N[C@H](Cc1ccc2ccccc2c1)C(=O)N[C@@H]1CCC(=O)NCCCC[C@@H]2NC(=O)[C@H](CC(C)C)NC(=O)[C@@H](Cc3ccc4ccccc4c3)NC(=O)[C@H](CCCN=C(N)N)NC(=O)[C@H](CC(=O)NC[C@@H](C(N)=O)NC(=O)[C@@H]3CCCN3C2=O)NC(=O)[C@@H](Cc2cccnc2)NC1=O [listing 2 of 2 here],4
4,CC(=O)N[C@H]1CCC(=O)NCCCC[C@@H](C(=O)N2CCC[C@H]2C(=O)N[C@@H](C)C(N)=O)NC(=O)[C@H](CC(C)C)NC(=O)[C@H](Cc2ccc3ccccc3c2)NC(=O)[C@H](CCCNC(=N)N)NC(=O)[C@H](C)NC(=O)[C@H](Cc2cccnc2)NC(=O)[C@H](Cc2ccc(Cl)cc2)NC1=O,4
5,CC(=O)N[C@H](Cc1ccc2ccccc2c1)C(=O)N[C@H](Cc1ccc(Cl)cc1)C(=O)N[C@@H]1CC(=O)NC[C@@H](C(=O)N2CCC[C@H]2C(=O)N[C@H](C)C(N)=O)NC(=O)[C@H](CC(C)C)NC(=O)[C@@H](Cc2ccc3ccccc3c2)NC(=O)[C@H](CCCN=C(N)N)NC(=O)[C@H](C)NC1=O,4
6,CC(=O)N[C@@H]1CCC(=O)NCCCC[C@@H](C(=O)N2CCC[C@H]2C(=O)N[C@@H](C)C(N)=O)NC(=O)[C@H](CC(C)C)NC(=O)[C@H](Cc2ccc3ccccc3c2)NC(=O)[C@H](CCCNC(=N)N)NC(=O)[C@H](C)NC(=O)[C@H](Cc2cccnc2)NC(=O)[C@H](Cc2ccc(Cl)cc2)NC1=O,4
